# Laboratory results: PubChem BioAssay AID1963964 (Molecular Pharmacology Branch, DTP, NCI, 2024)
# Test system: 997726-040-R-J2-PDC tumor spheroids, viability
# Assay: Anticancer human tumor 997726-040-R-J2-PDC patient-derived squamous cell lung carcinoma cell line growth inhibition [PI3K]
# Settings: spheroids with HUVEC and MSC; for IC50: curve of first compound; for viability, T/C: stronger effect = lower value
# Source text: Combinatorial screen of targeted agents with the PI3K inhibitors inavolisib, alpelisib, duvelisib, and copanlisib in multi-cell type tumor spheroids
# A high-throughput screen of multi-cell type tumor spheroids was designed to identify active combinations of targeted small molecules and PI3K pathway inhibitors. Complex spheroids include a stromal component modeled by human endothelial cells (HUVEC) and fibroblasts modeled by human mesenchymal stem cells (MSCs). The concentration ranges selected for each drug and investigational agent were based upon clinically achievable concentrations if the clinical Cmax of the agent was known.
# Compounds. The drugs and investigational agents: inavolisib (NSC800729), alpelisib (NSC765974), duvelisib (NSC772469), copanlisib (NSC816437), ipatasertib (NSC767898), afuresertib (NSC778305), talazoparib (NSC767125), sapanisertib (NSC764658), selumetinib (NSC741078), tovorafenib (DAY101, NSC766906), vemurafenib (NSC761431), ravoxertinib (NSC781343), sotorasib (NSC818433), MRTX1133 (NSC 836407), abemaciclib (NSC 768073), palbociclib (NSC758247), venetoclax (NSC 766270), SY5609 (NSC837396), enzalutamide (NSC755605), and darolutamide (NSC825331), were obtained from the National Cancer Institute (NCI) Developmental Therapeutics Program Chemical Repository. The FDA-approved anticancer drug set is available from the NCI Developmental Therapeutics Program. […] The stock solutions were prepared in dimethyl sulfoxide (DMSO, Sigma-Aldrich, St. Louis, MO, cat. D2650) at 800-fold the tested concentration and stored at -70 degrees C prior to their use. All drugs and investigational agents were tested over a range starting from a high concentration at or near the clinical Cmax and decreasing in half-log increments. If the clinical Cmax for an agent had not been determined, the highest concentration tested was 10 microM.
# Cell Culture. All cells were maintained in an incubator at 37 degrees C and 5% CO2 with 95% humidity. The PDC lines were cultured according to standard operating procedures established by the NCI PDMR (https://pdmr.cancer.gov/sops/default.htm). All PDCs were thawed and cultured in Matrigel-coated flasks prepared with a working solution of 1X Ham's F-12 nutrient mix, without supplementation (Invitrogen, Waltham, MA, cat. 11765054), 100 U/mL penicillin-streptomycin (Invitrogen, cat. 15140122), and 2.5% Matrigel (Corning Inc., Corning, NY, cat. 354248) for the first three passages. The 354836-022-R-J1-PDC, 475296-252-R-J1-PDC, and 997726-040-R-J2-PDC lines were cultured in 6A media, which includes advanced DMEM/F-12 (Thermo Fisher Scientific, cat. 12634028), 10 mM HEPES (Thermo Fisher Scientific, cat. 15630080), 1X GlutaMAX supplement (Thermo Fisher Scientific, cat. 35050061), 0.1 mg/mL primocin (InvivoGen, San Diego, CA, cat. ant-pm-2), 10% defined fetal bovine serum, heat inactivated (HyClone Laboratories Inc., Logan, UT, cat. SH30070.03HI), 50% L-WRN conditioned media (ATCC, cat. CRL-3276), 1.25 mM N-Acetyl-L-cysteine (Sigma-Aldrich, cat. A9165), 10 mM nicotinamide (Sigma-Aldrich, cat. N0636), 1X B-27 supplement (Thermo Fisher Scientific, cat. 17504044), 1X N-2 supplement (Thermo Fisher Scientific, cat. 17502048), and 10 microM Y-27632 dihydrochloride (Tocris Bioscience, Bristol, United Kingdom, cat. 1254). The 624824-186-R-J2-PDC line was cultured in 6C/Colon 1B media, which includes all 6A media components plus 50 ng/mL human EGF recombinant protein (Thermo Fisher Scientific, cat. PHG0311). […]
# [1] = second compound 0.00316 µM, first compound 0.0316 µM
# [2] = second compound 0.00316 µM, first compound 0.1 µM
# [3] = second compound 0.00316 µM, first compound 0.316 µM
# [4] = second compound 0.00316 µM, first compound 1 µM
# [5] = second compound 0.00316 µM, first compound 3.16 µM
# [6] = second compound 0.00316 µM, first compound 10 µM
# [7] = second compound 0.01 µM, first compound 0.0316 µM
# [8] = second compound 0.01 µM, first compound 0.1 µM
# [9] = second compound 0.01 µM, first compound 0.316 µM
# [10] = second compound 0.01 µM, first compound 1 µM
# [11] = second compound 0.01 µM, first compound 3.16 µM
# [12] = second compound 0.01 µM, first compound 10 µM
# [13] = second compound 0.0316 µM, first compound 0.0316 µM
# [14] = second compound 0.0316 µM, first compound 0.1 µM
# [15] = second compound 0.0316 µM, first compound 0.316 µM
# [16] = second compound 0.0316 µM, first compound 1 µM
# [17] = second compound 0.0316 µM, first compound 3.16 µM
# [18] = second compound 0.0316 µM, first compound 10 µM
# [19] = second compound 0.1 µM, first compound 0.0316 µM
# [20] = second compound 0.1 µM, first compound 0.1 µM
# [21] = second compound 0.1 µM, first compound 0.316 µM
# [22] = second compound 0.1 µM, first compound 1 µM
# [23] = second compound 0.1 µM, first compound 3.16 µM
# [24] = second compound 0.1 µM, first compound 10 µM
# [25] = second compound 0.316 µM, first compound 0.0316 µM
# [26] = second compound 0.316 µM, first compound 0.1 µM
# [27] = second compound 0.316 µM, first compound 0.316 µM
# [28] = second compound 0.316 µM, first compound 1 µM
# [29] = second compound 0.316 µM, first compound 3.16 µM
# [30] = second compound 0.316 µM, first compound 10 µM
# [31] = second compound 1 µM, first compound 0.0316 µM
# [32] = second compound 1 µM, first compound 0.1 µM
# [33] = second compound 1 µM, first compound 0.316 µM
# [34] = second compound 1 µM, first compound 1 µM
# [35] = second compound 1 µM, first compound 3.16 µM
# [36] = second compound 1 µM, first compound 10 µM
# 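Also: spheroids exposed to compounds for seven days before readout.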
structure (smiles),measurement,setting,value
CC1(C)CCC(CN2CCN(c3ccc(C(=O)NS(=O)(=O)c4ccc(NCC5CCOCC5)c([N+](=O)[O-])c4)c(Oc4cnc5[nH]ccc5c4)c3)CC2)=C(c2ccc(Cl)cc2)C1 + CC(Nc1ccc2c(c1)OCCn1cc(N3C(=O)OCC3C(F)F)nc1-2)C(N)=O,IC50,second compound 0.00316 µM,9.17 µM
same,IC50,second compound 0.01 µM,9.25 µM
same,IC50,second compound 0.0316 µM,5.87 µM
same,IC50,second compound 0.1 µM,< 0.0316 µM
same,IC50,second compound 0.316 µM,< 0.0316 µM
same,IC50,second compound 1 µM,< 0.0316 µM
same,"viability, T/C",[1],74.8%
same,"viability, T/C",[2],82.8%
same,"viability, T/C",[3],92.2%
same,"viability, T/C",[4],83.6%
same,"viability, T/C",[5],73.1%
same,"viability, T/C",[6],48.1%
same,"viability, T/C",[7],64.9%
same,"viability, T/C",[8],86.6%
same,"viability, T/C",[9],74.2%
same,"viability, T/C",[10],81.6%
same,"viability, T/C",[11],70%
same,"viability, T/C",[12],48.1%
same,"viability, T/C",[13],60.8%
same,"viability, T/C",[14],63.8%
same,"viability, T/C",[15],70.7%
same,"viability, T/C",[16],55%
same,"viability, T/C",[17],62.9%
same,"viability, T/C",[18],39.5%
same,"viability, T/C",[19],42.5%
same,"viability, T/C",[20],42.1%
same,"viability, T/C",[21],43.5%
same,"viability, T/C",[22],37.2%
same,"viability, T/C",[23],39.8%
same,"viability, T/C",[24],28.3%
same,"viability, T/C",[25],30.7%
same,"viability, T/C",[26],33.3%
same,"viability, T/C",[27],32.9%
same,"viability, T/C",[28],29.9%
same,"viability, T/C",[29],24.1%
same,"viability, T/C",[30],15.9%
same,"viability, T/C",[31],27.9%
same,"viability, T/C",[32],21.5%
same,"viability, T/C",[33],24.5%
same,"viability, T/C",[34],27.7%
same,"viability, T/C",[35],24.8%
same,"viability, T/C",[36],12.3%
C[C@@H](NC(=O)c1ncnc(N)c1Cl)c1ncc(C(=O)Nc2cc(C(F)(F)F)c(Cl)cn2)s1 + CC(Nc1ccc2c(c1)OCCn1cc(N3C(=O)OCC3C(F)F)nc1-2)C(N)=O,IC50,second compound 0.00316 µM,> 10 µM
same,IC50,second compound 0.01 µM,> 10 µM
same,IC50,second compound 0.0316 µM,6.26 µM
same,IC50,second compound 0.1 µM,4.17 µM
same,IC50,second compound 0.316 µM,< 0.0316 µM
same,IC50,second compound 1 µM,< 0.0316 µM
same,"viability, T/C",[1],92.1%
same,"viability, T/C",[2],122%
same,"viability, T/C",[3],104%
same,"viability, T/C",[4],100%
same,"viability, T/C",[5],85.3%
same,"viability, T/C",[6],60.4%
same,"viability, T/C",[7],89.5%
same,"viability, T/C",[8],95.2%
same,"viability, T/C",[9],93.5%
same,"viability, T/C",[10],93.7%
same,"viability, T/C",[11],80.7%
same,"viability, T/C",[12],58.3%
same,"viability, T/C",[13],67%
same,"viability, T/C",[14],80.4%
same,"viability, T/C",[15],66.1%
same,"viability, T/C",[16],61.9%
same,"viability, T/C",[17],57.9%
same,"viability, T/C",[18],45.3%
same,"viability, T/C",[19],55%
same,"viability, T/C",[20],53.7%
same,"viability, T/C",[21],58.3%
same,"viability, T/C",[22],58.3%
same,"viability, T/C",[23],51.8%
same,"viability, T/C",[24],40.5%
same,"viability, T/C",[25],42.3%
same,"viability, T/C",[26],39.3%
same,"viability, T/C",[27],37.1%
same,"viability, T/C",[28],41%
same,"viability, T/C",[29],39.2%
same,"viability, T/C",[30],30.7%
same,"viability, T/C",[31],34%
same,"viability, T/C",[32],33.8%
same,"viability, T/C",[33],33.6%
same,"viability, T/C",[34],35.5%
same,"viability, T/C",[35],33.6%
same,"viability, T/C",[36],24.1%
